Test results from US20080114055A1, “Thioxanthone Compounds to Reverse Weight Loss” (ZOLTAN LABORATORIES LLC, priority 2006, published 2008).

Columns and labels:
[1] = tested on: T47D human breast tumor; test: T47D human estrogen receptor positive breast cancer model: body, total and tumor weight; assay type: in vivo, mice; conditions: for Body weight: total minus tumor weight
Text: Tumors were developed in a homozygous line of C.B.-171 cr scid/scid adult female mice kept at specified pathogen free (SPF) hygienic levels. Suspensions of HL-60 human leukemia cells (about 1,500,000 cells), or approximately 0.1 cm^3 volume of tumor tissue derived from HT-168 human melanoma, PC-3 human prostate adenocarcinoma, or T47D human breast carcinoma were implanted subcutaneously to develop the tumors. After 12-18 days when the tumor-bearing mice were first treated, the size of the tumors was in the 0.2-0.4 cm^3 range. CCcompound1 was dissolved in physiological (0.9%) saline (NaCl) and applied subcutaneously in 50 μl volume. Tumor volume was determined by calipers in three dimensions; this technique is well known to one having ordinary skill in the art. Tumor volume was calculated according to the generally accepted formula: V=a^2×b×π/6, where “a” and “b” mean the shortest and longest diameter, respectively, of the measured tumor. Tumor weight was calculated from tumor volume using a 0.7 (tumor weight) : 1 (tumor volume) ratio. Total weight and tumor volume/weight was measured regularly (at least every second day). In all tumor experiments, each treatment group consisted of five animals. Accordingly, all data are the average of five independent determinations (one determination for each animal). T47D human tumors were developed in mice as described above. Treatments with CCcompound1 were started on day 17 after tumor implantation and conducted for five days and then followed by an additional five days with 2 treatment-free days inserted between the 2 series of treatments. The results, shown in TABLE 5, indicate that between day 17 and 28 after tumor implantation, this breast tumor caused about a 2.5-g loss in body weight. […] Thus, in this human breast tumor model, CCcompound1 is a potent anti-cachectic agent and its effects on body weight are accompanied by significant anti-tumor effects.

[2] = tested on: PC-3 human prostate tumor; test: PC-3 human prostate cancer model: body, total and tumor weight; assay type: in vivo, mice; conditions: for Body weight: total minus tumor weight
Text: Tumors were developed in a homozygous line of C.B.-171 cr scid/scid adult female mice kept at specified pathogen free (SPF) hygienic levels. Suspensions of HL-60 human leukemia cells (about 1,500,000 cells), or approximately 0.1 cm^3 volume of tumor tissue derived from HT-168 human melanoma, PC-3 human prostate adenocarcinoma, or T47D human breast carcinoma were implanted subcutaneously to develop the tumors. After 12-18 days when the tumor-bearing mice were first treated, the size of the tumors was in the 0.2-0.4 cm^3 range. CCcompound1 was dissolved in physiological (0.9%) saline (NaCl) and applied subcutaneously in 50 μl volume. Tumor volume was determined by calipers in three dimensions; this technique is well known to one having ordinary skill in the art. Tumor volume was calculated according to the generally accepted formula: V=a^2×b×π/6, where “a” and “b” mean the shortest and longest diameter, respectively, of the measured tumor. Tumor weight was calculated from tumor volume using a 0.7 (tumor weight) : 1 (tumor volume) ratio. Total weight and tumor volume/weight was measured regularly (at least every second day). In all tumor experiments, each treatment group consisted of five animals. Accordingly, all data are the average of five independent determinations (one determination for each animal). PC-3 human tumors were developed in mice as described above. Treatments with CCcompound1 were started on day 12 after tumor implantation and conducted for five days and then for another three days with two treatment-free days inserted between the two series of treatments. The results, shown in TABLE 4, indicate that between day 12 and 21 after tumor implantation, the prostate tumor caused about 5.7-g loss in body weight which corresponds to about 22% reduction.

[3] = tested on: HL60 human leukemia tumor; test: HL60 human leukemia tumor model: body, total and tumor weight; assay type: in vivo, mice; conditions: for Body weight: total minus tumor weight
Text: Tumors were developed in a homozygous line of C.B.-171 cr scid/scid adult female mice kept at specified pathogen free (SPF) hygienic levels. Suspensions of HL-60 human leukemia cells (about 1,500,000 cells), or approximately 0.1 cm^3 volume of tumor tissue derived from HT-168 human melanoma, PC-3 human prostate adenocarcinoma, or T47D human breast carcinoma were implanted subcutaneously to develop the tumors. After 12-18 days when the tumor-bearing mice were first treated, the size of the tumors was in the 0.2-0.4 cm^3 range. CCcompound1 was dissolved in physiological (0.9%) saline (NaCl) and applied subcutaneously in 50 μl volume. Tumor volume was determined by calipers in three dimensions; this technique is well known to one having ordinary skill in the art. Tumor volume was calculated according to the generally accepted formula: V=a^2×b×π/6, where “a” and “b” mean the shortest and longest diameter, respectively, of the measured tumor. Tumor weight was calculated from tumor volume using a 0.7 (tumor weight) : 1 (tumor volume) ratio. Total weight and tumor volume/weight was measured regularly (at least every second day). In all tumor experiments, each treatment group consisted of five animals. Accordingly, all data are the average of five independent determinations (one determination for each animal). HL60 human tumors were developed in mice as described above. Treatments with CCcompound1 were started on day 18 after tumor implantation and conducted for the first five days and then for three days with two treatment-free days inserted between the two series of treatments. The results, shown in TABLE 2, indicate that between day 18 and 27 after tumor implantation, the leukemia tumor caused about 4-g loss in body weight.

[4] = Water solubility; assay type: physicochemical; conditions: at the concentration used in vivo
[5] = tested on: HT-168 human melanoma tumor; test: HT-168 human melanoma model: body, total and tumor weight; assay type: in vivo, mice; conditions: for Body weight: total minus tumor weight
Text: Tumors were developed in a homozygous line of C.B.-171 cr scid/scid adult female mice kept at specified pathogen free (SPF) hygienic levels. Suspensions of HL-60 human leukemia cells (about 1,500,000 cells), or approximately 0.1 cm^3 volume of tumor tissue derived from HT-168 human melanoma, PC-3 human prostate adenocarcinoma, or T47D human breast carcinoma were implanted subcutaneously to develop the tumors. After 12-18 days when the tumor-bearing mice were first treated, the size of the tumors was in the 0.2-0.4 cm^3 range. CCcompound1 was dissolved in physiological (0.9%) saline (NaCl) and applied subcutaneously in 50 μl volume. Tumor volume was determined by calipers in three dimensions; this technique is well known to one having ordinary skill in the art. Tumor volume was calculated according to the generally accepted formula: V=a^2×b×π/6, where “a” and “b” mean the shortest and longest diameter, respectively, of the measured tumor. Tumor weight was calculated from tumor volume using a 0.7 (tumor weight) : 1 (tumor volume) ratio. Total weight and tumor volume/weight was measured regularly (at least every second day). In all tumor experiments, each treatment group consisted of five animals. Accordingly, all data are the average of five independent determinations (one determination for each animal). HT-168 human tumors were developed in mice as described above. Treatments with CCcompound1 were started on day 17 after tumor implantation and conducted for the first five days and then for another five days with two treatment-free days inserted between the two series of treatments. The results, shown in TABLE 3, indicate that between day 17 and 30 after tumor implantation, the melanoma tumor caused a 2.7-g loss in body weight.

[6] = 1.0 mg/kg s.c., day 17 (treatment start)
[7] = 1.0 mg/kg s.c., day 17 after tumor transplantation (treatment start)
[8] = 2.0 mg/kg s.c., day 17 (treatment start)
[9] = 4.0 mg/kg s.c., day 17 (treatment start)
[10] = 1.0 mg/kg s.c., day 12 (treatment start)
[11] = 2.0 mg/kg s.c., day 12 (treatment start)
[12] = 4.0 mg/kg s.c., day 12 (treatment start)
[13] = 0.5 mg/kg s.c., day 18 (treatment start)
[14] = 1.0 mg/kg s.c., day 18 (treatment start)
[15] = 2.0 mg/kg s.c., day 18 (treatment start)

## Cc1c(OCC(O)C[N+](C)(C)C)cc2c(=O)c3ccccc3sc2c1C.[Cl-] (centres unmarked) [CCcompound1, [3-(3,4-Dimethyl-9-oxo-9H-thioxanthen-2-yloxy)-2-hydroxypropyl]trimethyl-ammonium chloride]
[1]; [6]
  Tumor weight: 0.2 g
  Body weight: 26.3 g
[1]; [7]
  Total weight: 26.5 g
[1]; 1.0 mg/kg s.c., day 28
  Tumor weight: 1.6 g
  Body weight: 27.7 g
[1]; 1.0 mg/kg s.c., day 28 after tumor transplantation
  Total weight: 29.3 g
[1]; [8]
  Total weight: 26.9 g
  Tumor weight: 0.2 g
  Body weight: 26.7 g
[1]; 2.0 mg/kg s.c., day 28
  Total weight: 28.7 g
  Tumor weight: 1.5 g
  Body weight: 27.2 g
[1]; [9]
  Total weight: 27.0 g
  Tumor weight: 0.2 g
  Body weight: 26.8 g
[1]; 4.0 mg/kg s.c., day 28
  Total weight: 30.9 g
  Tumor weight: 1.2 g
  Body weight: 29.7 g
[1]; 1-mg/kg, between day 17 and 28
  Effect on body weight loss: fully reversed body weight loss
[1]; 4-mg/kg, between day 17 and 28
  Body weight gain: 3.1 g
[1]; 4-mg/kg, day 28
  Reduction of tumor weight: about 40%
[2]; [10]
  Tumor weight: 0.4 g
  Body weight: 25.9 g
[2]; 1.0 mg/kg s.c., day 12 after tumor transplantation (treatment start)
  Total weight: 26.3 g
[2]; 1.0 mg/kg s.c., day 21
  Tumor weight: 2.2 g
  Body weight: 23.1 g
[2]; 1.0 mg/kg s.c., day 21 after tumor transplantation
  Total weight: 25.3 g
[2]; [11]
  Total weight: 26.1 g
  Tumor weight: 0.4 g
  Body weight: 25.7 g
[2]; 2.0 mg/kg s.c., day 21
  Total weight: 28.4 g
  Tumor weight: 1.9 g
  Body weight: 26.5 g
[2]; [12]
  Total weight: 26.9 g
  Tumor weight: 0.2 g
  Body weight: 26.7 g
[2]; 4.0 mg/kg s.c., day 21
  Total weight: 32.4 g
  Tumor weight: 1.4 g
  Body weight: 31.0 g
[2]; 1-mg/kg, between day 12 and 21
  Effect on body weight loss: only partially prevented body weight loss
[2]; 4-mg/kg, between day 12 and 21
  Body weight gain: 4.3 g
[2]; 4-mg/kg, day 21
  Reduction of tumor weight: about 48%
[3]; [13]
  Tumor weight: 0.7 g
  Body weight: 25.5 g
[3]; 0.5 mg/kg s.c., day 18 after tumor transplantation (treatment start)
  Total weight: 26.2 g
[3]; 0.5 mg/kg s.c., day 27
  Tumor weight: 2.8 g
  Body weight: 24.0 g
[3]; 0.5 mg/kg s.c., day 27 after tumor transplantation
  Total weight: 26.8 g
[3]; [14]
  Total weight: 26.2 g
  Tumor weight: 0.4 g
  Body weight: 25.8 g
[3]; 1.0 mg/kg s.c., day 27
  Total weight: 30.3 g
  Tumor weight: 1.9 g
  Body weight: 28.4 g
[3]; [15]
  Total weight: 27.0 g
  Tumor weight: 0.5 g
  Body weight: 26.5 g
[3]; 2.0 mg/kg s.c., day 27
  Total weight: 30.6 g
  Tumor weight: 1.9 g
  Body weight: 28.7 g
[3]; 0.5-mg/kg, between day 18 and 27
  Effect on body weight loss: reduced body weight loss
[3]; 1-mg/kg, between day 18 and 27
  Effect on body weight: gained weight
[3]; 2-mg/kg, between day 18 and 27
  Effect on body weight: gained weight
[3]; higher amounts of CCcompound1, day 27
  Reduction of tumor weight: about 45%
[4]
  Water solubility: fully water-soluble
[5]; [6]
  Tumor weight: 0.2 g
  Body weight: 23.8 g
[5]; [7]
  Total weight: 24.0 g
[5]; 1.0 mg/kg s.c., day 30
  Tumor weight: 2.1 g
  Body weight: 25.5 g
[5]; 1.0 mg/kg s.c., day 30 after tumor transplantation
  Total weight: 27.6 g
[5]; [8]
  Total weight: 23.1 g
  Tumor weight: 0.2 g
  Body weight: 22.9 g
[5]; 2.0 mg/kg s.c., day 30
  Total weight: 25.8 g
  Tumor weight: 1.8 g
  Body weight: 24.0 g
[5]; [9]
  Total weight: 23.8 g
  Tumor weight: 0.2 g
  Body weight: 23.6 g
[5]; 4.0 mg/kg s.c., day 30
  Total weight: 29.6 g
  Tumor weight: 1.2 g
  Body weight: 28.4 g
[5]; 1-mg/kg, between day 17 and 30
  Effect on body weight loss: sufficient to reverse body weight loss
[5]; 4-mg/kg, between day 17 and 30
  Body weight gain: ~5 g
[5]; 4-mg/kg, day 30
  Reduction of tumor weight: more than 50%
